According to publication PMC8760490, “Discovery of novel furanylbenzamide inhibitors that target oncogenic tyrosine phosphatase SHP2 in leukemia cells” (The Journal of Biological Chemistry, 2021):

Tests used:
[1] = target: T1, SHP2cat (Homo sapiens, UniProt Q06124); experiment: Protein thermal shift (PTS) assay; type: binding; settings: dose response
T1 construct: the SHP2 catalytic domain (SHP2cat; residues 248–527); made in house
T1 sequence (Q06124 248-527): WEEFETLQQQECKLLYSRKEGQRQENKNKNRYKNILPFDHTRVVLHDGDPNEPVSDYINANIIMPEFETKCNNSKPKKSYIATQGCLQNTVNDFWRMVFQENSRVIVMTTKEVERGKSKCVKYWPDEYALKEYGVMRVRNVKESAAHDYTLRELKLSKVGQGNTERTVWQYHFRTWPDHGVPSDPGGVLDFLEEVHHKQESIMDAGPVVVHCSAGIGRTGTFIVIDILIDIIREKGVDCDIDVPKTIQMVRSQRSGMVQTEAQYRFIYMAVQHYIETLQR
Source text: We confirmed specific and dose-dependent binding of inhibitors to SHP2 by PTS, which monitors the thermal stability of a target protein in vitro ([40]). […] In addition, we confirmed the inhibitory activity of several furanylbenzamide inhibitors, including the top two compounds SBI-2130 and SBI-4668, in SHP2cat inhibition assays using the alternative substrate 3-O-methylfluorescein phosphate (OMFP), which features a peak fluorescence emission that is red-shifted by ∼75 nm compared with DiFMUP. The Km value of OMFP for SHP2cat was determined to be 50 μM. An OMFP fluorescence intensity–based assay was used to perform inhibitor dose–response experiments and determine IC50 values.
Differential scanning fluorimetry (also known as protein thermal shift) measurements of SHP2cat were performed using optimized methods and conditions in accordance with those previously described ([36], [41], [49]). SBI-4668 was spotted at different concentrations into MicroAmp 384-well real-time PCR plates (catalog no.: 4483285; Applied Biosystems) using an Echo 555 Liquid Handler. […] Plates were analyzed using a ViiA 7 Real-Time PCR instrument (Applied Biosystems) and a 12 min temperature gradient with a temperature increase of 0.075 °C/s. The melting temperature and thermal profiles were determined as described previously using Protein Thermal Shift Software, version 1.3 (Applied Biosystems) ([36], [49]).

[2] = test system: U-937 AML cells (G60R oncogenic mutation in SHP2); experiment: Cell viability (CellTiter-Glo), U-937; type: cell-based; settings: Homo sapiens, U-937, 72 h, 3 days, 0.123 to 30 μM
Source text: Oncogenic gain-of-function mutations in SHP2 drive leukemogenesis in a significant number of leukemia patients. However, because of their unique mechanism of action, the existing SHP2 allosteric inhibitors lack activity against the most common SHP2 oncogenic variants. Thus, we tested whether our inhibitors could inhibit the growth of leukemia cells expressing oncogenic SHP2 variants. […] Thus, we tested both SBI-4668 and RMC-4550 on U-937 AML cells, which harbor a G60R oncogenic mutation in SHP2. We treated cells with either SBI-4668 or RMC-4550 at various concentrations, ranging from 0.123 to 30 μM (Fig. 5A). […] We also assessed the effects of SBI-4668 and RMC-4550 on ERK1/2 activation in the SHP2 mutant U-937 cell line. […]
Viability of AML and esophageal carcinoma cells was assessed using the ATP-depletion assay CellTiter-Glo (Promega). Cells were harvested at 1 × 10^6/ml to 2 × 10^6 cells/ml with cell numbers determined by trypan blue using the Countess Cell counter (Thermo Scientific) and resuspended in culture media. […] Luminescence was read on a Tecan Spark Multimode Microplate Reader, and data were analyzed using GraphPad Prism software.

[3] = test system: phospho-ERK1/2 (p-ERK1/2) in U-937 AML cells; experiment: p-ERK1/2 immunoblot, U-937; type: cell-based; settings: SBI-4668 1, 3, 10, 30 μM, RMC-4550 1 μM
Source text: Oncogenic gain-of-function mutations in SHP2 drive leukemogenesis in a significant number of leukemia patients. However, because of their unique mechanism of action, the existing SHP2 allosteric inhibitors lack activity against the most common SHP2 oncogenic variants. Thus, we tested whether our inhibitors could inhibit the growth of leukemia cells expressing oncogenic SHP2 variants. […] Thus, we tested both SBI-4668 and RMC-4550 on U-937 AML cells, which harbor a G60R oncogenic mutation in SHP2. We treated cells with either SBI-4668 or RMC-4550 at various concentrations, ranging from 0.123 to 30 μM (Fig. 5A). […] We also assessed the effects of SBI-4668 and RMC-4550 on ERK1/2 activation in the SHP2 mutant U-937 cell line. Similar to the immunoblot experiments described for MOLM-13 cells above, U-937 AML cells were treated with either vehicle control (DMSO), SBI-4668 (1, 3, 10, or 30 μM), or with RMC-4550 (1 μM) for 24 h and processed for p-ERK1/2 immunoblot analysis (Fig. 5B).
Cells cultured in RPMI medium were treated as indicated in the legends to the figures. […] Densitometric quantitation of immunoblots was performed using Image Studio Lite Software (LI-COR). Changes of phosphorylated ERK1/2 to total ERK1/2 ratios are expressed as percentage of the vehicle-treated controls. […]

O=C(Nc1ccccc1)c1cc(-c2ccc(/C=C3\Sc4ccccc4C3=O)o2)ccc1O [SBI-4668, (Z)-2-Hydroxy-5-(5-((3-oxobenzo[b]thiophen-2(3H)-ylidene)methyl)furan-2-yl)-N-phenylbenzamide]
change of SHP2cat melting temperature (Tm) vs DMSO [1]: dose-dependently increased the melting temperature | IC50 [2]: 6.3 µM | p-ERK1/2 levels, U-937, 24 h [3]: dose-dependently inhibited ERK1/2 activation
